According to article PMC5766998, “Determination of the native features of the exoglucanase Cel48S from Clostridium thermocellum” (Biotechnology for Biofuels, 2018):

Molecular target: T1, ctCel48S_CD (Acetivibrio thermocellus, UniProt C7ED31)
T1 construct: GH48 catalytic domain, dockerin removed by inserted stop codon; C-terminal Gly5 linker and His12 tag kept; purified from culture supernatant of C. thermocellum DSM1313 (secreted); monomer
Experiment: reducing sugars released, HPLC
Format: biochemical
Details: 1% (wt/vol) substrate, 50 mM succinate pH 5.7, 10 mM CaCl2, 55 °C, 5 h

T1 sequence (C7ED31 entry or part of it): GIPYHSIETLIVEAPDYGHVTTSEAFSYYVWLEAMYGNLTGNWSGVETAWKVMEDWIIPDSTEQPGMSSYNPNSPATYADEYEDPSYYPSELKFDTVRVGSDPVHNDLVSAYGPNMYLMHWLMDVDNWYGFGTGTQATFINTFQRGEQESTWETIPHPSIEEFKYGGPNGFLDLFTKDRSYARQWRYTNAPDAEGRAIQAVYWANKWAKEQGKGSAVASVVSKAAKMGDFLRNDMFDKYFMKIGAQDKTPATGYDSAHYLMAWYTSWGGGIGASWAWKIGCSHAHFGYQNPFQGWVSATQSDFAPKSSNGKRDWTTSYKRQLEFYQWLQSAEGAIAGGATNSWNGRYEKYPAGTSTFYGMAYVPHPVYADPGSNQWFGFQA

OC[C@H]1O[C@@H](O[C@H]2[C@H](O)[C@@H](O)[C@H](O[C@H]3[C@H](O)[C@@H](O)[C@H](O[C@H]4[C@H](O)[C@@H](O)C(O)O[C@@H]4CO)O[C@@H]3CO)O[C@@H]2CO)[C@H](O)[C@@H](O)[C@@H]1O (some centres unmarked) [cellotetrose]
reducing sugars released, HPLC: ctCel48S_CD could also hydrolyze cellopentose and cellotetrose

OC[C@H]1O[C@@H](O[C@H]2[C@H](O)[C@@H](O)[C@H](O[C@H]3[C@H](O)[C@@H](O)[C@H](O[C@H]4[C@H](O)[C@@H](O)[C@H](O[C@H]5[C@H](O)[C@@H](O)C(O)O[C@@H]5CO)O[C@@H]4CO)O[C@@H]3CO)O[C@@H]2CO)[C@H](O)[C@@H](O)[C@@H]1O (some centres unmarked) [cellopentose]
reducing sugars released, HPLC: ctCel48S_CD could also hydrolyze cellopentose and cellotetrose
